The term IC50 denotes the concentration that inhibits the measured activity by half.

IC50 data for 21 compounds are collected here from patent US8063065B2, “Azaindazole compounds as CCR1 receptor antagonists” (Boehringer Ingelheim International GmbH, priority 2008, dated 2011).

Structures are written as SMILES.

Assay [1] has as its target T1, CCR1 (Homo sapiens, UniProt P32246).
T1 sequence (P32246 1-355): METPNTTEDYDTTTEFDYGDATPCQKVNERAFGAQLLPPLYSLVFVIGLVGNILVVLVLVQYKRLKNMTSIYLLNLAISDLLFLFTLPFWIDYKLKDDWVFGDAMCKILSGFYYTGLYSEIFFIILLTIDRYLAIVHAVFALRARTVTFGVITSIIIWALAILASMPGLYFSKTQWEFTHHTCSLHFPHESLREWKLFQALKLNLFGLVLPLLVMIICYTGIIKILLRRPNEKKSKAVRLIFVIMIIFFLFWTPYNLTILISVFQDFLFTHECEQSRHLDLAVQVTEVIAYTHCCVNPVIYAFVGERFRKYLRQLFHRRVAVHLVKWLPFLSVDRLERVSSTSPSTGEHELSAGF
Put plainly: Method A: calcium flux in CCR1 transfected cells (Fluo-4 NW, FLIPR TETRA), block of the CCR1/MIP-1α interaction. The format is cell-based. As to conditions: Method A: Fluo-4 NW, MIP-1 alpha at EC80. In a few lines: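 Non-adherent cells stably expressing recombinant CCR1 and G-alpha-16, Fluo-4 NW-loaded 1 h at room temperature, preincubated 1 h with compound (top 3,000 nM, 4-fold, 10 doses; 1% DMSO) in HBSS/20 mM HEPES pH 7.4. MIP-1 alpha added at EC80; intracellular calcium flux recorded on FLIPR TETRA.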
(Calcium assays in cells follow changes in intracellular calcium, usually with a dye or a luminescent sensor.)

For assay [2], the target named is T1, CCR1. Put plainly: Method B: calcium flux in CCR1 transfected cells (Calcium 4 dye, […] FDSS6000), block of the CCR1/MIP-1α interaction. The format is cell-based. Particulars: Method B: Calcium 4 dye, MIP-1alpha at EC80. In a few lines: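 Calcium flux on an FDSS6000 was triggered by MIP-1α at its EC80 in stably CCR1/G-alpha-16-expressing non-adherent cells. Before this, Calcium 4-loaded cells were preincubated with compound in HBSS, 20 mM HEPES pH 7.4, 1% DMSO: 30 min at 37 C plus 30 min at room temperature. Ten 4-fold doses began at 3,000 nM, with ±MIP-1α DMSO wells as controls.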

Turning to `C=CC[C@H](NC(=O)c1cncc2c1cnn2-c1ccc(F)cc1)c1ccnc(S(=O)(=O)CC)c1` [1-(4-Fluorophenyl)-1H-pyrazolo[3,4-c]pyridine-4-carboxylic acid [(S)-1-(2-ethanesulfonyl-pyridin-4-yl)-but-3-enyl]-amide], the IC50 on CCR1 [1] stood at 0.6 nM; on CCR1 [2] it was 0.4 nM.

`CC[C@H](NC(=O)c1cncc2c1cnn2-c1ccc(F)cc1)c1cncc(S(=O)(=O)CCC(=O)O)c1` [3-[5-((S)-1-{[1-(4-Fluorophenyl)-1H-pyrazolo[3,4-c]pyridine-4-carbonyl]-amino}-propyl)-pyridine-3-sulfonyl]-propionic acid]: the 50% inhibitory concentration (IC50) was 35 nM at CCR1 [1] and 14 nM on CCR1 [2].

`C[C@@H](O)CNS(=O)(=O)c1ccc(CNC(=O)c2cncc3c2cnn3-c2ccc(F)cc2)cc1` [1-(4-Fluorophenyl)-1H-pyrazolo[3,4-c]pyridine-4-carboxylic acid 4-((R)-2-hydroxy-propylsulfamoyl)-benzylamide]: the half-inhibitory concentration (IC50) on CCR1 [1] is 2 nM; on CCR1 [2], 1 nM.

With `CC[C@H](NC(=O)c1cncc2c1cnn2-c1ccc(F)cc1)c1cncc(S(=O)(=O)CC)c1` [1-(4-Fluorophenyl)-1H-pyrazolo[3,4-c]pyridine-4-carboxylic acid [(S)-1-(5-ethanesulfonyl-pyridin-3-yl)-propyl]-amide], the IC50 at CCR1 [1] worked out at 0.4 nM; at CCR1 [2], 0.3 nM.

As for `C[C@H](O)CNS(=O)(=O)c1ccc(CNC(=O)c2cncc3c2cnn3-c2ccc(F)cc2)cc1` [1-(4-Fluorophenyl)-1H-pyrazolo[3,4-c]pyridine-4-carboxylic acid 4-((S)-2-hydroxy-propylsulfamoyl)-benzylamide], the IC50 at CCR1 [1] stood at 1 nM; at CCR1 [2], 0.8 nM.

Take `CC[C@H](NC(=O)c1cncc2c1cnn2-c1ccc(F)cc1)c1cncc(S(C)(=O)=O)c1` [1-(4-Fluorophenyl)-1H-pyrazolo[3,4-c]pyridine-4-carboxylic acid [(S)-1-(5-methanesulfonyl-pyridin-3-yl)-propyl]-amide]: the 50% inhibitory concentration (IC50) at CCR1 [1] was 0.5 nM; on CCR1 [2], 0.2 nM.

In the case of `C[C@H](NC(=O)c1cncc2c1cnn2-c1ccc(F)cc1)c1ccc(S(C)(=O)=O)nc1` [1-(4-Fluorophenyl)-1H-pyrazolo[3,4-c]pyridine-4-carboxylic acid [(S)-1-(6-methanesulfonyl-pyridin-3-yl)-ethyl]-amide], the IC50 on CCR1 [1] is 9 nM; at CCR1 [2], 3 nM.

Consider `CC[C@H](NC(=O)c1cncc2c1cnn2-c1ccc(F)cc1)c1cccnc1` [1-(4-Fluorophenyl)-1H-pyrazolo[3,4-c]pyridine-4-carboxylic acid ((S)-1-pyridin-3-yl-propyl)-amide], for which the results for the half-inhibitory concentration (IC50) at CCR1 [1] and on CCR1 [2] were 15 nM and 8 nM, respectively.

For the compound `C[C@H](NC(=O)c1cncc2c1cnn2-c1ccc(F)cc1)c1cncc(S(N)(=O)=O)c1` [1-(4-Fluorophenyl)-1H-pyrazolo[3,4-c]pyridine-4-carboxylic acid [(S)-1-(5-sulfamoyl-pyridin-3-yl)-ethyl]-amide], the results for the IC50 on CCR1 [1] and at CCR1 [2] were 2 nM and 0.9 nM, respectively.

For `CCCC(NC(=O)c1cncc2c1cnn2-c1ccc(F)cc1)c1ccc(S(C)(=O)=O)nc1` (stereo not drawn) [1-(4-Fluorophenyl)-1H-pyrazolo[3,4-c]pyridine-4-carboxylic acid [1-(6-methanesulfonyl-pyridin-3-yl)-butyl]-amide], at CCR1 [1], the IC50 turned out to be 0.8 nM.

For the compound `CNS(=O)(=O)c1cc(CNC(=O)c2cncc3c2cnn3-c2ccc(F)cc2)ccc1OC` [1-(4-Fluorophenyl)-1H-pyrazolo[3,4-c]pyridine-4-carboxylic acid 4-methoxy-3-methylsulfamoyl-benzylamide], at CCR1 [1], the concentration for half-maximal inhibition (IC50) came to 12 nM.

Turning to `CS(=O)(=O)c1cccc(CNC(=O)c2cncc3c2cnn3-c2ccc(F)cc2)n1` [1-(4-Fluorophenyl)-1H-pyrazolo[3,4-c]pyridine-4-carboxylic acid (6-methanesulfonyl-pyridin-2-ylmethyl)-amide], the concentration for half-maximal inhibition (IC50) on CCR1 [1] was 39 nM.

In the case of `CN(C1CCNCC1)S(=O)(=O)c1ccc(CNC(=O)c2cncc3c2cnn3-c2ccc(F)cc2)cc1` [1-(4-Fluorophenyl)-1H-pyrazolo[3,4-c]pyridine-4-carboxylic acid 4-(methyl-piperidin-4-yl-sulfamoyl)-benzylamide], the half-maximal inhibitory concentration (IC50) on CCR1 [1] was 2 nM.

As for `CCCC(NC(=O)c1cncc2c1cnn2-c1ccc(F)cc1)c1cncc(S(=O)(=O)CCC(=O)OC)c1` (stereo not drawn) [3-[5-(1-{[1-(4-Fluorophenyl)-1H-pyrazolo[3,4-c]pyridine-4-carbonyl]-amino}-butyl)-pyridine-3-sulfonyl]-propionic acid methyl ester], on CCR1 [1], the IC50 stood at 3 nM.

Consider `O=C(NCc1ccc(S(=O)(=O)N2CCOCC2)cc1)c1cncc2c1cnn2-c1ccc(F)cc1` [1-(4-Fluorophenyl)-1H-pyrazolo[3,4-c]pyridine-4-carboxylic acid 4-(morpholine-4-sulfonyl)-benzylamide], for which, on CCR1 [1], the IC50 came out at 2 nM.

As for `CN(C1CCOCC1)S(=O)(=O)c1ccc(CNC(=O)c2cncc3c2cnn3-c2ccc(F)cc2)cc1` [1-(4-Fluorophenyl)-1H-pyrazolo[3,4-c]pyridine-4-carboxylic acid 4-[methyl-(tetrahydropyran-4-yl)-sulfamoyl]-benzylamide], the 50% inhibitory concentration (IC50) on CCR1 [1] is 2 nM.

On to `CCCC(NC(=O)c1cncc2c1cnn2-c1ccc(F)cc1)c1ccnc(Br)c1` (stereo not drawn) [1-(4-Fluorophenyl)-1H-pyrazolo[3,4-c]pyridine-4-carboxylic acid [1-(2-bromopyridin-4-yl)-butyl]-amide], for which, on CCR1 [1], the half-maximal inhibitory concentration (IC50) was 0.4 nM.

Turning to `O=C(NCc1cncc(Br)c1)c1cncc2c1cnn2-c1ccc(F)cc1` [1-(4-Fluorophenyl)-1H-pyrazolo[3,4-c]pyridine-4-carboxylic acid (5-bromopyridin-3-ylmethyl)-amide], the IC50 at CCR1 [1] was 13 nM.

Take `CCC(NC(=O)c1cncc2c1cnn2-c1ccc(F)cc1)c1ccnc(Br)c1` (stereo not drawn) [1-(4-Fluorophenyl)-1H-pyrazolo[3,4-c]pyridine-4-carboxylic acid [1-(2-bromopyridin-4-yl)-propyl]-amide]: the IC50 on CCR1 [1] came out at 0.4 nM.

Turning to `CC[C@H](NC(=O)c1cncc2c1cnn2-c1ccc(Cl)cc1)c1cncc(Br)c1` [1-(4-Chlorophenyl)-1H-pyrazolo[3,4-c]pyridine-4-carboxylic acid [(S)-1-(5-bromopyridin-3-yl)-propyl]-amide], the IC50 on CCR1 [1] came out at 0.6 nM.

For the compound `COC1CCN(S(=O)(=O)c2ccc(CNC(=O)c3cncc4c3cnn4-c3ccc(F)cc3)cc2)CC1` [1-(4-Fluorophenyl)-1H-pyrazolo[3,4-c]pyridine-4-carboxylic acid 4-(4-methoxy-piperidine-1-sulfonyl)-benzylamide], on CCR1 [1], the IC50 is 0.7 nM.
